From patent US20070128217A1 (priority 2003, published 2007)

Experiments:
[1] = tested on: antibodies in sera from SARS patients (sera 1a, 1b, 2, 6, 37, 62, London, SARS-yellow, SARS-green); assay type: binding, human; set-up: Binding of serum 6 to linear peptides of protein X1 of SARS-CoV Urbani / Binding of serum 37 to linear peptides of protein X1 of SARS-CoV Urbani / Binding of serum 6 to looped/cyclic peptide (PEPSCAN-ELISA) / Binding of serum 37 to looped/cyclic peptide (PEPSCAN-ELISA) / Binding of serum 37 to looped/cyclic peptides of protein X1 of SARS-CoV Urbani / Binding of serum 6 to linear peptides of protein X2 / Binding of serum 37 to linear peptides of protein X2 / Binding of serum 37 to looped/cyclic peptides of protein X2 of SARS-CoV Urbani / Binding of serum 6 to linear peptides of protein M of SARS-CoV Urbani / Binding of serum 37 to linear peptides of protein M of SARS-CoV Urbani / Binding of serum 6 to looped/cyclic peptides of protein M of SARS-CoV Urbani / Binding of serum 37 to looped/cyclic peptides of protein M of SARS-CoV Urbani / Binding of serum 6 to linear peptides of protein X3 of SARS-CoV Urbani / Binding of serum 37 to linear peptides of protein X3 of SARS-CoV Urbani / Binding of serum 37 to looped/cyclic peptides of protein X3 of SARS-CoV Urbani / Binding of serum 6 to linear peptides of protein X4 of SARS-CoV Urbani / Binding of serum 37 to linear peptides of protein X4 of SARS-CoV Urbani / Binding of serum 37 to looped/cyclic peptides of protein X4 of SARS-CoV Urbani / Binding of serum 6 to linear peptides of protein X5 of SARS-CoV Urbani / Binding of serum 37 to linear peptides of protein X5 of SARS-CoV Urbani / Binding of serum 37 to looped/cyclic peptides of protein X5 of SARS-CoV Urbani / Binding of serum 6 to linear peptides of protein N of SARS-CoV Urbani / Binding of serum 37 to linear peptides of protein N of SARS-CoV Urbani / Binding of serum 6 to linear peptide (PEPSCAN-ELISA) / Binding of serum 1a to looped/cyclic peptides of protein N of SARS-CoV Urbani / Binding of serum 1b to looped/cyclic peptides of protein N of SARS-CoV Urbani / Binding of serum 2 to looped/cyclic peptides of protein N of SARS-CoV Urbani / Binding of serum 6 to looped/cyclic peptides of protein N of SARS-CoV Urbani / Binding of serum 37 to looped/cyclic peptides of protein N of SARS-CoV Urbani / Binding of serum 62 to looped/cyclic peptides of protein N of SARS-CoV Urbani / Binding of serum London to looped/cyclic peptides of protein N of SARS-CoV Urbani / Binding of serum SARS-green to looped/cyclic peptides of protein N of SARS-CoV Urbani: unit not given here
[2] = tested on: rabbit serum obtained by immunizing a rabbit with the SARS-CoV strain Frankfurt 1; assay type: binding; set-up: Binding of a rabbit serum to linear peptides / Binding of a rabbit serum to looped peptides / Rabbit serum linear peptides / Rabbit serum looped peptides / Binding of a rabbit serum to linear peptides of protein N of SARS-CoV Urbani (Rabbit serum linear peptides) / Binding of a rabbit serum to looped/cyclic peptides of protein N of SARS-CoV Urbani (Rabbit serum looped peptides): unit not given here
[3] = tested on: control sera (pooled serum of ten healthy LUMC hospital workers; commercial negative donor pooled serum from the Dutch bloodbank); assay type: binding, human; set-up: Binding of Control serum LUMC to linear peptides / Binding of Control serum Blood-bank to linear peptides / Binding of Control serum LUMC to looped peptides / Binding of Control Serum Blood-Bank to Looped peptides / Binding of Control serum LUMC to linear peptides of the protein M of SARS-CoV Urbani / Binding of Control serum Blood-bank to linear peptides of the protein M of SARS-CoV Urbani / Binding of Control serum LUMC to looped peptides of the protein M of SARS-CoV Urbani / Binding of Control Serum Blood-Bank to Looped peptides of the protein M of SARS-CoV Urbani: unit not given here

ELKQLLEQWNLVIGF
Binding of serum 1a to linear peptides of protein M of SARS-CoV Urbani [1]: 0.8
Binding of serum 1a to looped/cyclic peptides of protein M of SARS-CoV Urbani [1]: 0.6
Binding of serum 1b to linear peptides of protein M of SARS-CoV Urbani [1]: 0.8
Binding of serum 1b to looped/cyclic peptides of protein M of SARS-CoV Urbani [1]: 0.6
Binding of serum 2 to linear peptides of protein M of SARS-CoV Urbani [1]: 0.5
Binding of serum 2 to looped/cyclic peptides of protein M of SARS-CoV Urbani [1]: 0.5
Binding of serum 6 to linear peptides of protein M of SARS-CoV Urbani [1]: 0.6
Binding of serum 6 to looped/cyclic peptides of protein M of SARS-CoV Urbani [1]: 0.8
Binding of serum 37 to linear peptides of protein M of SARS-CoV Urbani [1]: 0.6
Binding of serum 37 to looped/cyclic peptides of protein M of SARS-CoV Urbani [1]: 0.7
Binding of serum 62 to linear peptides of protein M of SARS-CoV Urbani [1]: 0.5
Binding of serum 62 to looped/cyclic peptides of protein M of SARS-CoV Urbani [1]: 0.5
Binding of serum London to linear peptides of protein M of SARS-CoV Urbani [1]: 0.6
Binding of serum London to looped/cyclic peptides of protein M of SARS-CoV Urbani [1]: 0.3
Binding of serum SARS-green to linear peptides of protein M of SARS-CoV Urbani [1]: 0.5
Binding of serum SARS-green to looped/cyclic peptides of protein M of SARS-CoV Urbani [1]: 0.7
Binding of serum SARS-yellow to linear peptides of protein M of SARS-CoV Urbani [1]: 0.3
Binding of serum SARS-yellow to looped/cyclic peptides of protein M of SARS-CoV Urbani [1]: 0.9
Rabbit serum linear peptides [2]: 0.0
Rabbit serum looped peptides [2]: 0.2
Binding of Control Serum Blood-Bank to Looped peptides of the protein M of SARS-CoV Urbani [3]: 0.6
Binding of Control serum Blood-bank to linear peptides of the protein M of SARS-CoV Urbani [3]: 0.8
Binding of Control serum LUMC to linear peptides of the protein M of SARS-CoV Urbani [3]: 0.7
Binding of Control serum LUMC to looped peptides of the protein M of SARS-CoV Urbani [3]: 0.7

ELYSPLFLIVAALVF
Binding of serum 1a to linear peptides of protein X4 of SARS-CoV Urbani [1]: 0.7
Binding of serum 1a to looped/cyclic peptides of protein X4 of SARS-CoV Urbani [1]: 0.6
Binding of serum 1b to linear peptides of protein X4 of SARS-CoV Urbani [1]: 0.4
Binding of serum 1b to looped/cyclic peptides of protein X4 of SARS-CoV Urbani [1]: 0.4
Binding of serum 2 to linear peptides of protein X4 of SARS-CoV Urbani [1]: 0.4
Binding of serum 2 to looped/cyclic peptides of protein X4 of SARS-CoV Urbani [1]: 0.6
Binding of serum 6 to linear peptides of protein X4 of SARS-CoV Urbani [1]: 0.4
Binding of serum 6 to looped/cyclic peptides of protein X4 of SARS-CoV Urbani [1]: 0.4
Binding of serum 37 to linear peptides of protein X4 of SARS-CoV Urbani [1]: 0.6
Binding of serum 37 to looped/cyclic peptides of protein X4 of SARS-CoV Urbani [1]: 0.6
Binding of serum 62 to linear peptides of protein X4 of SARS-CoV Urbani [1]: 0.6
Binding of serum 62 to looped/cyclic peptides of protein X4 of SARS-CoV Urbani [1]: 0.6
Binding of serum London to linear peptides of protein X4 of SARS-CoV Urbani [1]: 0.5
Binding of serum London to looped/cyclic peptides of protein X4 of SARS-CoV Urbani [1]: 0.2
Binding of serum SARS-green to linear peptides of protein X4 of SARS-CoV Urbani [1]: 0.5
Binding of serum SARS-green to looped/cyclic peptides of protein X4 of SARS-CoV Urbani [1]: 0.5
Binding of serum SARS-yellow to linear peptides of protein X4 of SARS-CoV Urbani [1]: 0.2
Binding of serum SARS-yellow to looped/cyclic peptides of protein X4 of SARS-CoV Urbani [1]: 0.6
Rabbit serum linear peptides [2]: 0.4
Rabbit serum looped peptides [2]: 0.5
Binding of Control Serum Blood-Bank to Looped peptides [3]: 0.7
Binding of Control serum Blood-bank to linear peptides [3]: 0.5
Binding of Control serum LUMC to linear peptides [3]: 0.3
Binding of Control serum LUMC to looped peptides [3]: 0.7

EPCPSGTYEGNSPFH
Binding of serum 1a to linear peptides of protein X4 of SARS-CoV Urbani [1]: 0.7
Binding of serum 1a to looped/cyclic peptides of protein X4 of SARS-CoV Urbani [1]: 0.8
Binding of serum 1b to linear peptides of protein X4 of SARS-CoV Urbani [1]: 0.5
Binding of serum 1b to looped/cyclic peptides of protein X4 of SARS-CoV Urbani [1]: 0.6
Binding of serum 2 to linear peptides of protein X4 of SARS-CoV Urbani [1]: 0.4
Binding of serum 2 to looped/cyclic peptides of protein X4 of SARS-CoV Urbani [1]: 0.7
Binding of serum 6 to linear peptides of protein X4 of SARS-CoV Urbani [1]: 0.5
Binding of serum 6 to looped/cyclic peptides of protein X4 of SARS-CoV Urbani [1]: 0.6
Binding of serum 37 to linear peptides of protein X4 of SARS-CoV Urbani [1]: 0.6
Binding of serum 37 to looped/cyclic peptides of protein X4 of SARS-CoV Urbani [1]: 0.7
Binding of serum 62 to linear peptides of protein X4 of SARS-CoV Urbani [1]: 0.7
Binding of serum 62 to looped/cyclic peptides of protein X4 of SARS-CoV Urbani [1]: 0.6
Binding of serum London to linear peptides of protein X4 of SARS-CoV Urbani [1]: 0.7
Binding of serum London to looped/cyclic peptides of protein X4 of SARS-CoV Urbani [1]: 0.4
Binding of serum SARS-green to linear peptides of protein X4 of SARS-CoV Urbani [1]: 0.6
Binding of serum SARS-green to looped/cyclic peptides of protein X4 of SARS-CoV Urbani [1]: 0.5
Binding of serum SARS-yellow to linear peptides of protein X4 of SARS-CoV Urbani [1]: 0.9
Binding of serum SARS-yellow to looped/cyclic peptides of protein X4 of SARS-CoV Urbani [1]: 0.5
Rabbit serum linear peptides [2]: 0.6
Rabbit serum looped peptides [2]: 0.4
Binding of Control Serum Blood-Bank to Looped peptides [3]: 0.6
Binding of Control serum Blood-bank to linear peptides [3]: 0.6
Binding of Control serum LUMC to linear peptides [3]: 0.5
Binding of Control serum LUMC to looped peptides [3]: 0.8

ETNILLNVPLRGTIV
Binding of serum 1a to linear peptides of protein M of SARS-CoV Urbani [1]: 0.7
Binding of serum 1a to looped/cyclic peptides of protein M of SARS-CoV Urbani [1]: 0.5
Binding of serum 1b to linear peptides of protein M of SARS-CoV Urbani [1]: 0.5
Binding of serum 1b to looped/cyclic peptides of protein M of SARS-CoV Urbani [1]: 0.6
Binding of serum 2 to linear peptides of protein M of SARS-CoV Urbani [1]: 0.5
Binding of serum 2 to looped/cyclic peptides of protein M of SARS-CoV Urbani [1]: 0.7
Binding of serum 6 to linear peptides of protein M of SARS-CoV Urbani [1]: 0.4
Binding of serum 6 to looped/cyclic peptides of protein M of SARS-CoV Urbani [1]: 0.8
Binding of serum 37 to linear peptides of protein M of SARS-CoV Urbani [1]: 0.6
Binding of serum 37 to looped/cyclic peptides of protein M of SARS-CoV Urbani [1]: 0.4
Binding of serum 62 to linear peptides of protein M of SARS-CoV Urbani [1]: 0.7
Binding of serum 62 to looped/cyclic peptides of protein M of SARS-CoV Urbani [1]: 0.5
Binding of serum London to linear peptides of protein M of SARS-CoV Urbani [1]: 0.4
Binding of serum London to looped/cyclic peptides of protein M of SARS-CoV Urbani [1]: 0.2
Binding of serum SARS-green to linear peptides of protein M of SARS-CoV Urbani [1]: 0.3
Binding of serum SARS-green to looped/cyclic peptides of protein M of SARS-CoV Urbani [1]: 0.2
Binding of serum SARS-yellow to linear peptides of protein M of SARS-CoV Urbani [1]: 0.1
Binding of serum SARS-yellow to looped/cyclic peptides of protein M of SARS-CoV Urbani [1]: 0.5
Rabbit serum linear peptides [2]: 0.5
Rabbit serum looped peptides [2]: 0.0
Binding of Control Serum Blood-Bank to Looped peptides of the protein M of SARS-CoV Urbani [3]: 1.0
Binding of Control serum Blood-bank to linear peptides of the protein M of SARS-CoV Urbani [3]: 0.7
Binding of Control serum LUMC to linear peptides of the protein M of SARS-CoV Urbani [3]: 0.3
Binding of Control serum LUMC to looped peptides of the protein M of SARS-CoV Urbani [3]: 0.9
